Measurements: patent US6043037A, “Rapid method for measuring clastogenic fingerprints using fluorescence in situ hybridization” (The Regents of the University of California, priority 1997, dated 2000)

Experiments:
[1] = system: human lymphocytes; assay: S ratio (apparently simple translocations / incompletes) measured by FISH after in vitro exposure to clastogenic agents; type: cell-based
Method: Identification and scoring of chromosome exchange aberrations was performed using FISH as described in Lucas, et al., Rapid translocation frequency analysis in humans decades after exposure to ionizing radiationi, Int'l. J. Radiat. Biol., 62:53-63 (1992). The scoring criteria used (apparently […] exchange-type painting pattern) was equivalent to those described in Simpson, et al. Estimating the true frequency of X-ray-induced complex chromosome exchanges using fluorescence in situ hybridization, Int'l. J. Radiat. Biol., 67:37-45 (1995). Only apparently simple translocations (ASTs) and dicentrics (ASD's) were used to calculate F ratios because equality for translocations and dicentrics has been shown only for AST's and ASD's mathematically (Lucas, et al., Int'l. J. Radiat. Biol., 69:145-153 (1996) and experimentally (Simpson, et al., Int'l. J. Radiat. Biol., 67:37-45 (1995); Kovacs et al., Radiation Research, 137:34-43. (1994). The translocation frequency measured by FISH was scaled to full-genome equivalents using the formula in Lucas, et al., Int'l. J. Radiat. Biol., 62:53-63 (1992), herein by reference. In brief, the formula relates the translocation frequency measured by FISH, Fp, to the genomic translocation frequencies, FG, through the fraction of the genome covered by the probes, fp, as follows:
Cells were irradiated with ^60 Co and ^137 Cs gamma rays in order to produce aberrations and detect the frequency of their occurance. Irradiation of cells with ^60 Co and ^137 Cs gamma rays has been described elsewhere. Lucas, J. N., et al., Rapid determination of human chromosome translocation frequency using a pair of chromosome-specific DNA probes, Int'l. J. Radiat. Biol., 56:35-44 (1989). […]
Except where noted, all data analyzed were obtained using FISH. […] The chromosome exchange aberrations scored here were apparently simple (AS) exchange-type painting patterns. Simpson, P. J. and Savage, J. R. K., Estimating the true frequency of X-ray-induced complex chromosome exchanges using fluorescence in situ hybridization, Int'l. […]

[2] = system: human lymphocytes; assay: S ratio measured by FISH in lymphocytes of humans exposed in vivo (benzene workers, tritium worker)
Source text: Except where noted, all data analyzed were obtained using FISH. Identification and scoring of chromosome exchange aberrations using chromosome painting to generate additional data employed the methods of J. M. Lucas, et al., Rapid translocation frequency analysis in humans decades after exposure to ionizing radiation, Int'l. […] The chromosome exchange aberrations scored here were apparently simple (AS) exchange-type painting patterns.
The pattern resembles that of translocations. An incomplete apparently simple (AS) translocation pattern resembles that of an incomplete reciprocal translocation where the solid painted fragment contains one centromere. These aberrations are those translocations where reciprocity of the exchange event is not registered, either because the exchanged is actually incomplete, or because one of the exchanges segments involves the extreme, unpainted, terminal part of the arm.
Incomplete apparently simple translocations were recognized as bicolor chromosome derivatives, where the centromere resides on the unpainted segment.
Where possible, data were combined, and in some cases, additional scoring was performed to improve statistics. The blind scoring of coded photomicrographs was performed by technicians unfamiliar with the project goal. Photomicrographs were either reanalyzed from previous studies, or new photomicrographs were analyzed for this study.
The significance estimate for testing the equality of S-ratios between any two populations compared here was calculated by a likelihood ratio test using a Generalized Linear Model (GLM) on two nested hypotheses. The four outcomes were assumed to be distributed as independent Poisson random variates with a logarithmic link function. The null hypothesis included terms for offset, population and outcome type. The alternative included an additional interaction term. […]

[3] = in vitro exposure, 1800 cells (bleomycin), 5,809 cells (tritium, 0.6 Gy)
[4] = 20 benzene workers with history of benzene poisoning, 18,583 cells

Molecule | ASTs (apparently simple translocations) [1, 3] | Inc (incomplete apparently simple translocations) [1, 3] | S ratio compared with low-LET radiation ([1]; in vitro, vs low-LET radiation) | ASTs (apparently simple / complete translocations) [2, 4] | Inc (incomplete apparently simple translocations) [2, 4] | S ratio compared with low-LET radiation ([2]; benzene workers, vs low-LET radiation)
bleomycin | 49 | 21 | significantly lower than those measured for low-LET radiation | – | – | –
c1ccccc1 [Benzene, benzene] | – | – | – | 50 | 25 | significantly lower than those measured for low-LET radiation
